Laboratory results as given in patent US10745400B2, “Inhibition of BMP signaling, compounds, compositions and uses thereof” (Vanderbilt University, priority 2018, dated 2020).

Assays:
PDGFRb = PDGFRb (Homo sapiens, UniProt P09619); test: Kinase assay (33P-ATP filter-binding), PDGFRb; format: biochemical; conditions: read-out: Kinase Selectivity PDGFRb
Method: (§1) The kinase assays were carried out briefly as follows. Substrate was prepared in Base Reaction Buffer (20 mM Hepes (pH 7.5), 10 mM MgCl2, 1 mM EGTA, 0.02% Brij35, 0.02 mg/ml BSA, 0.1 mM Na3VO4, 2 mM DTT, 1% DMSO). The indicated kinases was delivered into the substrate solution and allowed to gently mix. Next, the specific compound was delivered in DMSO into the kinase mixture by Acoustic technology (Echo550; nanoliter range), and allowed to incubate for 20 minutes at room temperature. Next, ^33P-ATP was delivered into the reaction mixture to initiate the reaction and allowed to incubate at room temperature. After 2 hours, the reactions were spotted onto P81 ion exchange paper and the kinase activity is detected by the filter-binding method.

Protein binding, human = format: in vitro ADME
ALK5 = biological target: T1, ALK5 (Homo sapiens, UniProt P36897); test: Kinase assay (33P-ATP filter-binding), ALK5; format: biochemical; conditions: read-out: Kinase Selectivity ALK5
T1 sequence (P36897 34-503): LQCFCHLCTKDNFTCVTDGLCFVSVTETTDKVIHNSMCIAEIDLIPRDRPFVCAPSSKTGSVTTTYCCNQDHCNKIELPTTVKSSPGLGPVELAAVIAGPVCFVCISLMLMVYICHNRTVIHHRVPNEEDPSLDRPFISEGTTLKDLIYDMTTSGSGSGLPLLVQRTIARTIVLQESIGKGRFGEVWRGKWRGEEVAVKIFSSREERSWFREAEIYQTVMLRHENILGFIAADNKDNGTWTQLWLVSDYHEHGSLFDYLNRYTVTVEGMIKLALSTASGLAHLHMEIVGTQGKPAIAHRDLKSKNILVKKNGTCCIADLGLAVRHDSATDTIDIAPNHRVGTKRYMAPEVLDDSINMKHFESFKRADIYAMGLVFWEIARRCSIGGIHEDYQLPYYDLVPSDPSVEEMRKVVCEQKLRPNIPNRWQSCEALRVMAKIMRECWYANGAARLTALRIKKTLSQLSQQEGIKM
Method: as §1

ALK6 = ALK6 (Homo sapiens, UniProt O00238); test: Kinase assay (33P-ATP filter-binding), ALK6; format: biochemical; conditions: read-out: Kinase Selectivity ALK6
Method: as §1

[1] = test system: BMP-responsive C2C12 mouse myoblast cells stimulated with BMP4; test: BMP4 cell assay (Id1 promoter-firefly luciferase reporter); format: cell-based; conditions: BMP4 50 ng/mL, overnight
Method: The BMP4 cell assay were carried out briefly as follows. Stably transfected BMP-responsive C2C12 mouse myoblast cells (containing the Idl promoter-firefly luciferase reporter) were seeded in 96-well plates and incubated overnight with the compounds and BMP4 (50 ng/mL). The cells were then lysed, and cell extracts were then subjected to the firefly luciferase assay using Steady-Glo luciferase assay kit (Promega). The results were normalized to cell titers, as measured using Cell Titer-Glo luminescence assay (Promega). […] Relative activity was quantified by the ratio of firefly to Renilla luciferase activities using the dual luciferase assay kit (Promega).

[2] = Intrinsic clearance, mouse; format: in vitro ADME; conditions: for CLint scaled: mouse
ALK3/BMPR1A = ALK3/BMPR1A (Homo sapiens, UniProt P36894); test: Kinase assay (33P-ATP filter-binding), ALK3; format: biochemical; conditions: 1 mM; read-out: Kinase Selectivity ALK3/BMPR1A (1 mM)
Method: as §1

KDR = KDR (Homo sapiens, UniProt P35968); test: Kinase assay (33P-ATP filter-binding), KDR; format: biochemical; conditions: read-out: Kinase Selectivity KDR
Method: as §1

[3] = Intrinsic clearance, human; format: in vitro ADME; conditions: for CLint scaled: human
BMPR2 = biological target: T2, BMPR2 (Homo sapiens, UniProt Q13873); test: Kinase assay (33P-ATP filter-binding), BMPR2; format: biochemical; conditions: read-out: Kinase Selectivity BMPR2
T2 sequence (Q13873 27-1038): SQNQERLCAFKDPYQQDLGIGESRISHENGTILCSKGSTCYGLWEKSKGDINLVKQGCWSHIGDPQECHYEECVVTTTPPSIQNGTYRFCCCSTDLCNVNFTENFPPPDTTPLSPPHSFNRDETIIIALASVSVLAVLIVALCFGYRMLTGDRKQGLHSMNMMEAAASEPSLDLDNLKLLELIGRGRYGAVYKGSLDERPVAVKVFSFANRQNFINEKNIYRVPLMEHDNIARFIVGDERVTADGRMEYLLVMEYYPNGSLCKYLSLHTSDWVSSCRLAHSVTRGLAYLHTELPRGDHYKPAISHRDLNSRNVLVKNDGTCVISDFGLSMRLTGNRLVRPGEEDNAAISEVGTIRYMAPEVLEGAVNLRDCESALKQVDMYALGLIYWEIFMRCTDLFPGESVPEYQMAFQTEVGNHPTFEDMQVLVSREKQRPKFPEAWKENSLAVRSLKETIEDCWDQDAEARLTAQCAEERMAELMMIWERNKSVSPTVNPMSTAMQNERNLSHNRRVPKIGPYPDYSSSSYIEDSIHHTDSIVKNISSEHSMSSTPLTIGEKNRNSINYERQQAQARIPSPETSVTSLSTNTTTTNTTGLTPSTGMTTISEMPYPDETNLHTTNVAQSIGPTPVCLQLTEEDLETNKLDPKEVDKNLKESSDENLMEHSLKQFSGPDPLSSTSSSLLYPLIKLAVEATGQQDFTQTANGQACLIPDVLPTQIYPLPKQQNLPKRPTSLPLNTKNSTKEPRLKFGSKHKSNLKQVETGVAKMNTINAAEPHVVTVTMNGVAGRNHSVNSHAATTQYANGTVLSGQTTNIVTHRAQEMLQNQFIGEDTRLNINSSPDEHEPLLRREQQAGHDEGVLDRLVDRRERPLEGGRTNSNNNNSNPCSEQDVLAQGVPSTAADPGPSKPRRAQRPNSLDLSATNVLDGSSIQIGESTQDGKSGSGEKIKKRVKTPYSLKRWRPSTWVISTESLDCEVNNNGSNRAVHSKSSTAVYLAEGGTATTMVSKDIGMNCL
Method: as §1

ALK4 = biological target: T3, ALK4 (Homo sapiens, UniProt P36896); test: Kinase assay (33P-ATP filter-binding), ALK4; format: biochemical; conditions: read-out: Kinase Selectivity ALK4
T3 sequence (P36896 24-505): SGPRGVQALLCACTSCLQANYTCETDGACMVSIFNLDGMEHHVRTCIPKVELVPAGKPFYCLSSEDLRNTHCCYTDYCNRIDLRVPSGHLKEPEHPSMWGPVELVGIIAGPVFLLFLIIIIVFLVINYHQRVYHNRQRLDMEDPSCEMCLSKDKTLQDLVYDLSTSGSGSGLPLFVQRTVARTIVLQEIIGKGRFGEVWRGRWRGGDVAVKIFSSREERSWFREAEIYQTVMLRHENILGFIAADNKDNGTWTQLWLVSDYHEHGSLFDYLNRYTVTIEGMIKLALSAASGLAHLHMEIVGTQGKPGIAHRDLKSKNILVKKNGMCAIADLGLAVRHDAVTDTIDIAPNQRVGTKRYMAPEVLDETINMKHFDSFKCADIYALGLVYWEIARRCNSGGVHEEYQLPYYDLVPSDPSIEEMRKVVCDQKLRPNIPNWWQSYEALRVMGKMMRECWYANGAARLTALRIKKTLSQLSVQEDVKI
Method: as §1

Protein binding, mouse = format: in vitro ADME
ALK1/ACVRL1 = ALK1/ACVRL1 (Homo sapiens, UniProt P37023); test: Kinase assay (33P-ATP filter-binding), ALK1; format: biochemical; conditions: read-out: Kinase Selectivity ALK1/ACVRL1
Method: as §1

TGFbR2 = TGFbR2 (Homo sapiens, UniProt P37173); test: Kinase assay (33P-ATP filter-binding), TGFbR2; format: biochemical; conditions: read-out: Kinase Selectivity TGFbR2
Method: as §1

[4] = CL-Hep, value in parentheses, read-out: Intrinsic Clearance Human (CL-Hep)

Chain of ALK6 (O00238 14-502): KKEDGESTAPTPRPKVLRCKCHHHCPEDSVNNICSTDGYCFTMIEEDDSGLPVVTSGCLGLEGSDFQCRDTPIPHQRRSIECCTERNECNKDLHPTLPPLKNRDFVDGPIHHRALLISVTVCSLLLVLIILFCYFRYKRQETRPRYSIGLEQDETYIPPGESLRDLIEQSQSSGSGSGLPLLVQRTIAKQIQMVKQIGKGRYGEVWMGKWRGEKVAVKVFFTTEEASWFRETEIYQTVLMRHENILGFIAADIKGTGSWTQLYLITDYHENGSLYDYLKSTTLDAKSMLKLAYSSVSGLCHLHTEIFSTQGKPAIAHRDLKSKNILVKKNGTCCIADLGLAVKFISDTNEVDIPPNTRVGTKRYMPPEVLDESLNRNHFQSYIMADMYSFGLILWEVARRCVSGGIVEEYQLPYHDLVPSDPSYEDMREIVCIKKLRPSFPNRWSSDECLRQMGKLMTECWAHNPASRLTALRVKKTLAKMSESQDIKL
Chain of ALK3/BMPR1A (P36894 24-532): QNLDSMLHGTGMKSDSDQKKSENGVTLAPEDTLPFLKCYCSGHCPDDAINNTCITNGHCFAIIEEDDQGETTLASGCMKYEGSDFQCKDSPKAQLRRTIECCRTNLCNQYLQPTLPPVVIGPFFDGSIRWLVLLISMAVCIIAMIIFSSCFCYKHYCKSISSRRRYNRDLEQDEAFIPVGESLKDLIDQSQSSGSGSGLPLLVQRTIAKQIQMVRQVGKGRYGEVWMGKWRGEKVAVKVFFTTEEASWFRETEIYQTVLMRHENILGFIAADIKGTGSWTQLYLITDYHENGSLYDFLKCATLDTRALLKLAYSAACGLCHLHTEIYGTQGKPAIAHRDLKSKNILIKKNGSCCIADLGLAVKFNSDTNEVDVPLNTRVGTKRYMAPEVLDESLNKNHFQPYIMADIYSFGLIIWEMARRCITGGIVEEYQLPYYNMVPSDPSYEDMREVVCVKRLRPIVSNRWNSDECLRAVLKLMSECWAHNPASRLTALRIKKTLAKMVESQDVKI
Chain of PDGFRb (P09619 33-1106, species assumed): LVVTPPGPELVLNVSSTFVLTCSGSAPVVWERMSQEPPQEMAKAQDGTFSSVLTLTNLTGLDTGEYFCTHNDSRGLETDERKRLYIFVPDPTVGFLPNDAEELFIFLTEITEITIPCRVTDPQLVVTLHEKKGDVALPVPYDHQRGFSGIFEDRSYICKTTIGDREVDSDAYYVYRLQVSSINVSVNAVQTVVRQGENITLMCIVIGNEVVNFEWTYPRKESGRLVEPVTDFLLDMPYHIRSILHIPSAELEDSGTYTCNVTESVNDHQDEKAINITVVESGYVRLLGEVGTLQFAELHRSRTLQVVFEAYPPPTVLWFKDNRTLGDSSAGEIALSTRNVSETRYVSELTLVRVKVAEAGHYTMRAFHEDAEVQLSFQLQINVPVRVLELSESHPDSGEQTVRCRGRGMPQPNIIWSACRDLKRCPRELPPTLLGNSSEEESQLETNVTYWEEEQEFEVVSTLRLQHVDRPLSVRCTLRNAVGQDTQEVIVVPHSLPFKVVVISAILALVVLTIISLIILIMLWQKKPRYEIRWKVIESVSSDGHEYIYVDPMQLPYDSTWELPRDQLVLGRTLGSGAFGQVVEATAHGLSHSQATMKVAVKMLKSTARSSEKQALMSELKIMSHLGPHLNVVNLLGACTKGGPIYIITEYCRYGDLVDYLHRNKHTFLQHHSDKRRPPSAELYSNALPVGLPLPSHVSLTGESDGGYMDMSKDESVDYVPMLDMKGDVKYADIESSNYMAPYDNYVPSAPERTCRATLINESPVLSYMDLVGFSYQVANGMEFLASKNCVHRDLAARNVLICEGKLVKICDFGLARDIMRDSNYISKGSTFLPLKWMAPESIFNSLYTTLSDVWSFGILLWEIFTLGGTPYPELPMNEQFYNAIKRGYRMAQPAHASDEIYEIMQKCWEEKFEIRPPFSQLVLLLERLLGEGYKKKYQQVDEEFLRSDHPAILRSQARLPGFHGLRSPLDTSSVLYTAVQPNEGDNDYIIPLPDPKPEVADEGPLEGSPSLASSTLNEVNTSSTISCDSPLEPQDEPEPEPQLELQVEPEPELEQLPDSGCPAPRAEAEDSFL
Chain of TGFbR2 (P37173 23-567, species assumed): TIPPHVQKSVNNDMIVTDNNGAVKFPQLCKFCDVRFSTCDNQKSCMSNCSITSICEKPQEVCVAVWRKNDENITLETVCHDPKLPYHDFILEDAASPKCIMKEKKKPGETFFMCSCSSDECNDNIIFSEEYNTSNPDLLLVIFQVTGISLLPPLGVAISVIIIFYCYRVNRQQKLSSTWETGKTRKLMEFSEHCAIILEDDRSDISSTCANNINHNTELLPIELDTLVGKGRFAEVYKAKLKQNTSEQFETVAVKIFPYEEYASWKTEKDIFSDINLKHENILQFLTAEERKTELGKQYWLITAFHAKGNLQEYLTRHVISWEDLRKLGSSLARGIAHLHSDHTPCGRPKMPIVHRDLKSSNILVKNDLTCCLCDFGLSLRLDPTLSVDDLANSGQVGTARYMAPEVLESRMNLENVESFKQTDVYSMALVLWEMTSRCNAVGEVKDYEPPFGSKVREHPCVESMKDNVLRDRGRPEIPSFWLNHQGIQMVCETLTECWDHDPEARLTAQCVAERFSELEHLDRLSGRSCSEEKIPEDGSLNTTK
Chain of ALK1/ACVRL1 (P37023 22-503): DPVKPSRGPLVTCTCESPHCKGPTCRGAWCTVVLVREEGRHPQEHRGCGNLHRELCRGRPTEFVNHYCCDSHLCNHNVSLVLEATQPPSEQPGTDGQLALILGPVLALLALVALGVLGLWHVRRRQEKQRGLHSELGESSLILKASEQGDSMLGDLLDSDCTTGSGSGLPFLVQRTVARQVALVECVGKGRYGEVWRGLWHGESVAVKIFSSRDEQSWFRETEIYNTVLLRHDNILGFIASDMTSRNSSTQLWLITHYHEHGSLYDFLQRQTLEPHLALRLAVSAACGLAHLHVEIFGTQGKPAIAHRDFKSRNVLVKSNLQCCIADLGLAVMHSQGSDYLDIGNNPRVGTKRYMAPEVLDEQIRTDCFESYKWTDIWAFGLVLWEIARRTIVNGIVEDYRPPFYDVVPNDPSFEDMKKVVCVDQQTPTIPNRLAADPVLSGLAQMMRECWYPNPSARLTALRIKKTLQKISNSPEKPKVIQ
Chain of KDR (P35968 20-1356, species assumed): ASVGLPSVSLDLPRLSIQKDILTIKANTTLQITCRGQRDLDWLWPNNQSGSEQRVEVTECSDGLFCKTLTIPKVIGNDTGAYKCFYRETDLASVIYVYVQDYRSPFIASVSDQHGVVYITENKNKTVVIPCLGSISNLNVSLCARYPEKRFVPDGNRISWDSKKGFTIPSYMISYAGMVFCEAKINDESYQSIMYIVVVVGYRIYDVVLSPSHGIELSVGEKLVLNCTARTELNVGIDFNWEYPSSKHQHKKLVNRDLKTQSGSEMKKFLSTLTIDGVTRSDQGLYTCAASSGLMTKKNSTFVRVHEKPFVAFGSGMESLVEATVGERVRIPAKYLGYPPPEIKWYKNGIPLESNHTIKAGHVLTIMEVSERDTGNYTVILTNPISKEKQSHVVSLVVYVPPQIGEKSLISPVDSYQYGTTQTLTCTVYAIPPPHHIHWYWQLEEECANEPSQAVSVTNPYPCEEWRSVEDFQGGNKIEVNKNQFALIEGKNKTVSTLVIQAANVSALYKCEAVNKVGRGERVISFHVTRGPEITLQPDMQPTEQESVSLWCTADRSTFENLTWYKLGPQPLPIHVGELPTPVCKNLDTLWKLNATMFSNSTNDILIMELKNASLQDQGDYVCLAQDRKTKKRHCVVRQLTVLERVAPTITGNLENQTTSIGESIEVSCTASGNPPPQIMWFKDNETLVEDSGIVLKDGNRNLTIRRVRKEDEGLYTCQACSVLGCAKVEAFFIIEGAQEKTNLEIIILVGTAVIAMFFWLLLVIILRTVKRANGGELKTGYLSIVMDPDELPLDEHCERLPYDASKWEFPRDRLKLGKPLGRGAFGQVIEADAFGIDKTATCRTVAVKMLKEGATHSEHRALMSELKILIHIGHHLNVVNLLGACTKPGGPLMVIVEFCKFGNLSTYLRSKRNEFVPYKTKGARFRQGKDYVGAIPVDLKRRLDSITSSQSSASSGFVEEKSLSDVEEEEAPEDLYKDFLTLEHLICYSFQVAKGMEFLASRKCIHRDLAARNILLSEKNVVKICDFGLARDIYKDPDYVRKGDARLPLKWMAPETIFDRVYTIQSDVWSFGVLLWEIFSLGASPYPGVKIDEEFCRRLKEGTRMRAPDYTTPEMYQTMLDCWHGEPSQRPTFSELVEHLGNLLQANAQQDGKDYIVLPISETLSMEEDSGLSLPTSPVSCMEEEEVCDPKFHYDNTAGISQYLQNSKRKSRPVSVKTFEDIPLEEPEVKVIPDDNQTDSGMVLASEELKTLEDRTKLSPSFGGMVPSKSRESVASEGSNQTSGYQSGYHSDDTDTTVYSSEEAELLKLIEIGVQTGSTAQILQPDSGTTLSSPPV

| IC50 (PDGFRb) | Protein Binding (% Free) Human (Protein binding, human) | IC50 (ALK5) | IC50 (ALK6) | IC50 ([1]; Mus musculus, C2C12, C2C12 cells) | CLint scaled ([2]; CL-Hep, value in parentheses, read-out: Intrinsic Clearance Mouse (CL-Hep)) | CLint scaled ([2]; read-out: Intrinsic Clearance Mouse) | IC50 (ALK3/BMPR1A) | IC50 (KDR) | CLint scaled [3, 4] | CLint scaled ([3]; read-out: Intrinsic Clearance Human) | IC50 (BMPR2) | IC50 (ALK4) | Protein Binding (% Free) Mouse (Protein binding, mouse) | IC50 (ALK1/ACVRL1) | IC50 (TGFbR2) | IC50 ([1]; C2C12 cells) | Intrinsic Clearance Mouse [2] | Intrinsic Clearance Mouse (CL-Hep) ([2]; CL-Hep, value in parentheses) | Intrinsic Clearance Human (CL-Hep) ([3]; CL-Hep, value in parentheses) | Compound |
| --- | --- | --- | --- | --- | --- | --- | --- | --- | --- | --- | --- | --- | --- | --- | --- | --- | --- | --- | --- | --- |
| 6930 nM | 10.3 % Free | 717 nM | 188 nM | 29.6 nM | < 32.9 mL/min/kg | < 49.5 mL/min/kg | < 5.1 nM | 36900 nM | 14 mL/min/kg | 46.7 mL/min/kg | > 100000 nM | 390 nM | 8.52 % Free | 89.2 nM | 498 nM |  |  |  |  | Cc1cc(-c2cnc3cc(-c4ccc(C5CNCCN5)cc4)ccn23)c2cc(F)ccc2n1 (centres unmarked) [Compound 17] |
| 6490 nM | 7.33 % Free | 456 nM | 231 nM |  |  |  | < 5.1 nM | 31400 nM |  |  | > 100000 nM | 386 nM | 5.48 % Free | 16.4 nM | 2680 nM | 34.9 nM | <49.5 mL/min/kg | (<32.94) mL/kg/min | (12.4) mL/kg/min | Cc1cc(-c2cnc3cc(-c4ccc(C5CNCCN5)cc4)ccn23)c2cc(F)ccc2n1 (centres unmarked) [Compound 18] |
| 5200 nM |  | 232 nM | 128 nM |  |  |  | < 5.1 nM | 39300 nM | 17.5 mL/min/kg |  | > 50000 nM | 113 nM |  | 72.1 nM | 388 nM |  |  |  |  | Cc1cc(-c2cnc3cc(-c4ccc(C5COCCN5)cc4)ccn23)c2cc(F)cc(F)c2n1 (centres unmarked) [Compound 22] |
